pKi: −log10 of the molar value.
Target: T1, C-C chemokine receptor type 9 (Homo sapiens, UniProt P51686)
T1 sequence (P51686 whole entry): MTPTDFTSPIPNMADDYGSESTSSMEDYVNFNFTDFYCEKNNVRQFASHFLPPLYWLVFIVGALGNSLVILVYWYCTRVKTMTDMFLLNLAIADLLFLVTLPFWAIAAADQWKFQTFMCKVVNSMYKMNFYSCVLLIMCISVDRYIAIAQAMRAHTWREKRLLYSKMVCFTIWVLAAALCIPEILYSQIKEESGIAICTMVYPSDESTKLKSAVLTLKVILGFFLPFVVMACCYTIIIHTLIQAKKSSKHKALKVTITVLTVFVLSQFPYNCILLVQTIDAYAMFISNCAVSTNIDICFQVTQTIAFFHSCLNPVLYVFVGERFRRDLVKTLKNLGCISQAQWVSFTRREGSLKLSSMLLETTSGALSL
Experiment: FLIPR Assay: A calcium flux assay was used to determine the ability of the compounds to interfere with the binding between CCR9 and its chemokine ligand (TECK) in Chem1-hCCR9 overexpressing cells. hCCR9 overexpressing cells were seeded (25,000 cells/well) into black Poly-D-Lysine coated clear bottom 96-well plates (BD Biosciences, Cat #356640) and incubated overnight at 37° C./5% CO2 in a humidified incubator. Media was aspirated and cells washed twice with 100 μL assay buffer (1×HBSS, 20 mM HEPES) containing 2.5 mM Probenecid. A 0.3× Fluo-4 NW calcium dye was prepared in assay buffer containing 5 mM Probenecid and stored in the dark. Each well was loaded with 100 μL of 0.3× Fluo-4 NW calcium dye and incubated at 37° C./5% CO2 for 60 minutes and then at room temperature for 30 minutes. A half-log serially diluted concentration response curve was prepared at a 3× final assay concentration for each compound (10 μM-0.1 nM final assay concentration) and 50 μL of the compound then transferred to the cells (150 μL final volume) for 60 minutes prior to stimulation (30 minutes at 37° C./5% CO2 and 30 minutes at room temperature). TECK was diluted to 4× its EC80 in assay buffer (containing 0.1% [w/v] bovine serum albumin [BSA]) and 50 μL dispensed through the fluorometric imaging plate reader (FLIPR) instrument to stimulate the cells (200 μL final volume). […]
Assay type: cell-based

Structure (SMILES): CC(C)(C)c1ccc(S(=O)(=O)Nc2ccc(C#N)c3c2C(=O)N(Cc2ccc[n+]([O-])c2)C3=O)cc1
- pKi: 7.08

From ChEMBL document CHEMBL5727027, “Compounds useful as CCR9 modulators” (2018)
